Our source for the MIC and Activity values is ChEMBL document CHEMBL5357033, “Discovery of Diverse Sesquiterpenoids from Crossiella cryophila through Genome Mining and NMR Tracking” (J Nat Prod, 2024).

The subject of data set [1] is Xanthomonas oryzae. Briefly: Antimicrobial activity against Xanthomonas oryzae ATCC 35933 assessed as reduction in microbial growth by broth microdilution method. Type of data set: functional. For orientation: Dilution methods test growth across graded concentrations, often in twofold steps.
Data set [2] has as its system Klebsiella pneumoniae. Nature of the data set: Antimicrobial activity against Klebsiella pneumoniae W5 assessed as reduction in microbial growth by broth microdilution method. It counts as functional.
Data set [3] has as its system Micrococcus luteus. Nature of the data set: Antimicrobial activity against Micrococcus luteus ATCC 4685 assessed as reduction in microbial growth by broth microdilution method. It counts as functional.
Data set [4] relates to MDA-MB-231. Briefly: Anticancer activity against human MDA-MB-231 cells assessed as reduction in cell viability at 40 uM measured after 48 hrs by CCK-8 method relative to control. Type of data set: functional. (In general: Formazan colour is commonly taken as a measure of viable cells.)
For data set [5], the system named is Paracidovorax avenae. Briefly: Antimicrobial activity against Acidovorax avenae ATCC 19307 assessed as reduction in microbial growth by broth microdilution method. Type of data set: functional.
Data set [6] has as its system Bacillus subtilis. Briefly: Antimicrobial activity against Bacillus subtilis ATCC 6051 assessed as reduction in microbial growth by broth microdilution method. It counts as functional.
For data set [7], the system named is Staphylococcus aureus. Briefly: Antimicrobial activity against Staphylococcus aureus LV-B1 assessed as reduction in microbial growth by broth microdilution method. It counts as functional.
For data set [8], the system named is Staphylococcus aureus. Briefly: Antimicrobial activity against methicillin resistant Staphylococcus aureus assessed as reduction in microbial growth by broth microdilution method. Type of data set: functional.
Data set [9] deals with SW480. Briefly: Anticancer activity against human SW480 cells assessed as reduction in cell viability at 40 uM measured after 48 hrs by CCK-8 method relative to control. Type of data set: functional.
Data set [10] has as its system MCF7. Nature of the data set: Anticancer activity against human MCF7 cells assessed as reduction in cell viability at 40 uM measured after 48 hrs by CCK-8 method relative to control. Type of data set: functional.
For data set [11], the system named is Shigella sonnei. Briefly: Antimicrobial activity against Shigella sonnei ZD12 assessed as reduction in microbial growth by broth microdilution method. Type of data set: functional.
The test system of data set [12] is RAW264.7. Briefly: Antiinflammatory activity in mouse RAW264.7 assessed as reduction in LPS-induced NO production incubated for 24 hrs by Griess method relative to control. It counts as functional. Further details: concentration or dose not given beside the values. For orientation: Griess reagent forms a coloured azo dye with nitrite.
Data set [13] concerns Staphylococcus capitis. Nature of the data set: Antimicrobial activity against Staphylococcus capitis W7 assessed as reduction in microbial growth by broth microdilution method. Type of data set: functional.
Data set [14] relates to A549. Nature of the data set: Anticancer activity against human A549 cells assessed as reduction in cell viability at 40 uM measured after 48 hrs by CCK-8 method relative to control. It counts as functional.
The test system of data set [15] is RAW264.7. Nature of the data set: Cytotoxicity against mouse RAW264.7 cells measured after 24hrs by CCK-8 method relative to control. Further details: concentration or dose not given beside the values. Particulars: raw264.7, 24 h. Type of data set: toxicity, cell-based.
In data set [16] the test system is HepG2. Nature of the data set: Anticancer activity against human HepG2 cells assessed as reduction in cell viability at 40 uM measured after 48 hrs by CCK-8 method relative to control. Type of data set: functional.
For data set [17], the system named is Escherichia coli. Briefly: Antimicrobial activity against Escherichia coli CGMCC 1.3344 assessed as reduction in microbial growth by broth microdilution method. Type of data set: functional.
The subject of data set [18] is Pseudomonas syringae. Nature of the data set: Antimicrobial activity against Pseudomonas syringae ATCC-BAA-2502 assessed as reduction in microbial growth by broth microdilution method. Type of data set: functional.
For data set [19], the system named is Enterococcus. Nature of the data set: Antimicrobial activity against Vancomycin-resistant Enterococci assessed as reduction in microbial growth by broth microdilution method. Type of data set: functional.

Some results are limits rather than exact numbers.

On to `CC1(C)[C@H]2/C=C(/CO)CC[C@@H]3O[C@@]3(C)CC[C@@H]21`, for which the minimum inhibitory concentration (MIC) in [1], in [2], in data set [3], in data set [5], in [6] and in [7] was above 128 µg/mL each time. In addition, the MIC in data set [8], in [11], in data set [13], in [17], in [18] and in data set [19] was above 128 µg/mL throughout. Besides, the Activity in data set [4] is given as 4.47%; in [9], -7.55%; in data set [10], 14.53%; in data set [12] it was -6.95%; in data set [14], 13%; in data set [15] it was 8.25%. Also, the Activity in data set [16] is recorded as -11.68%.

`CC1(C)[C@H]2[C@@H]1CC[C@@]1(C)[C@H](O)CC[C@](O)(CO)[C@H]21`: the MIC in data set [1], in data set [2], in [3], in [5], in data set [6] and in data set [7] was above 128 µg/mL each time. Moreover, the minimum inhibitory concentration (MIC) in [8], in data set [11], in [13], in [17], in [18] and in [19] was above 128 µg/mL each time. The Activity in data set [4] is on record as 27.39%; in data set [9] it was 7.24%; in [10] it was 11.1%; in [12] it was -3.05%; in data set [14] it was 0.34%; in data set [15], 81.69%. Moreover, the Activity in data set [16] is reported as 3.99%.

Regarding `CC1=C[C@@H]2[C@@H](C(C)C)CC[C@@](C)(O)[C@@H]2CC1`, the MIC in [1], in [2], in data set [3], in [5], in data set [6] and in data set [7] was above 128 µg/mL each time. In addition, the MIC in data set [8], in [11], in [13], in data set [17], in [18] and in data set [19] was above 128 µg/mL each time. Besides, the Activity in data set [4] was 32.06%; in data set [9], 6.82%; in data set [10], 18.49%; in data set [12], -4.95%; in data set [14], 12.06%; in data set [15], 90.3%. Moreover, the Activity in data set [16] is 4.12%.

Consider `C/C1=C\CC/C(CO)=C\[C@H]2[C@H](C[C@H]1O)C2(C)C`, for which the minimum inhibitory concentration (MIC) in data set [1], in data set [2], in data set [3], in data set [5], in data set [6] and in [7] was above 128 µg/mL in each case. For the same compound, the MIC in [8], in data set [11], in data set [13], in data set [17], in data set [18] and in [19] was above 128 µg/mL each time. Besides, the Activity in data set [4] is 6.53%; in [9], 46.36%; in data set [10] it was 15.37%; in data set [12] it was -1.42%; in data set [14], 7.59%; in [15], 83.59%. For the same compound, the Activity in data set [16] is reported as 6.04%.

What is called MIC is the lowest concentration that inhibits growth of the organism.
